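Dose response: 5 concentrations. Exposure: 48 h. Format: 96-well plates. Endpoint: linear interpolation; highest concentration if not reached. GI50 marks 50% less growth. The concentration for full growth arrest is given as TGI.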
Columns and labels:
Experiment in all cases: inhibition of tumour cell growth, NCI panel, 48 h
CAKI-1 renal = system: CAKI-1 renal
HCC-2998 colon = system: HCC-2998 colon
HCT-15 colon = system: HCT-15 colon
NCI-H460 lung = system: NCI-H460 lung
SK-MEL-5 melanoma = system: SK-MEL-5 melanoma
LOX IMVI melanoma = system: LOX IMVI melanoma
MCF7 breast = system: MCF7 breast
CCRF-CEM leukemia = system: CCRF-CEM leukemia
HCT-116 colon = system: HCT-116 colon
SNB-19 CNS = system: SNB-19 CNS
UACC-257 melanoma = system: UACC-257 melanoma
UACC-62 melanoma = system: UACC-62 melanoma
DU-145 prostate = system: DU-145 prostate
IGROV1 ovarian = system: IGROV1 ovarian
NCI/ADR-RES ovarian = system: NCI/ADR-RES ovarian
SF-539 CNS = system: SF-539 CNS
786-0 renal = system: 786-0 renal
TK-10 renal = system: TK-10 renal
HS 578T breast = system: HS 578T breast
MDA-MB-231 breast = system: MDA-MB-231 breast
K-562 leukemia = system: K-562 leukemia
UO-31 renal = system: UO-31 renal
OVCAR-8 ovarian = system: OVCAR-8 ovarian
RXF 393 renal = system: RXF 393 renal
SK-OV-3 ovarian = system: SK-OV-3 ovarian
HT29 colon = system: HT29 colon
ACHN renal = system: ACHN renal
RPMI-8226 leukemia = system: RPMI-8226 leukemia
SK-MEL-28 melanoma = system: SK-MEL-28 melanoma
SN12C renal = system: SN12C renal
SR leukemia = system: SR leukemia
OVCAR-3 ovarian = system: OVCAR-3 ovarian
PC-3 prostate = system: PC-3 prostate
NCI-H522 lung = system: NCI-H522 lung
T-47D breast = system: T-47D breast
NCI-H23 lung = system: NCI-H23 lung
MOLT-4 leukemia = system: MOLT-4 leukemia
HL-60(TB) leukemia = system: HL-60(TB) leukemia
MALME-3M melanoma = system: MALME-3M melanoma
NCI-H226 lung = system: NCI-H226 lung
A549 NSCLC = system: A549 NSCLC
SW-620 colon = system: SW-620 colon
SF-295 CNS = system: SF-295 CNS
SF-268 CNS = system: SF-268 CNS
M14 melanoma = system: M14 melanoma
MDA-MB-435 = system: MDA-MB-435
BT-549 breast = system: BT-549 breast
OVCAR-4 ovarian = system: OVCAR-4 ovarian
HOP-92 NSCLC = system: HOP-92 NSCLC
SK-MEL-2 melanoma = system: SK-MEL-2 melanoma
HOP-62 NSCLC = system: HOP-62 NSCLC
A498 renal = system: A498 renal
SNB-75 CNS = system: SNB-75 CNS
KM12 colon = system: KM12 colon
U251 CNS = system: U251 CNS
OVCAR-5 ovarian = system: OVCAR-5 ovarian
COLO 205 colon = system: COLO 205 colon

SMILES: NC(=O)c1ccc(N(C(N)=O)c2c(F)cccc2F)nc1-c1ccc(F)cc1F
- GI50 (CAKI-1 renal): > 100 µM
- TGI (CAKI-1 renal): > 100 µM
- GI50 (HCC-2998 colon): > 100 µM
- TGI (HCC-2998 colon): > 100 µM
- GI50 (HCT-15 colon): > 100 µM
- TGI (HCT-15 colon): > 100 µM
- GI50 (NCI-H460 lung): > 100 µM
- TGI (NCI-H460 lung): > 100 µM
- GI50 (SK-MEL-5 melanoma): > 100 µM
- TGI (SK-MEL-5 melanoma): > 100 µM
- GI50 (LOX IMVI melanoma): > 100 µM
- TGI (LOX IMVI melanoma): > 100 µM
- GI50 (MCF7 breast): > 100 µM
- TGI (MCF7 breast): > 100 µM
- GI50 (CCRF-CEM leukemia): > 100 µM
- TGI (CCRF-CEM leukemia): > 100 µM
- GI50 (HCT-116 colon): > 100 µM
- TGI (HCT-116 colon): > 100 µM
- GI50 (SNB-19 CNS): > 100 µM
- TGI (SNB-19 CNS): > 100 µM
- GI50 (UACC-257 melanoma): > 100 µM
- TGI (UACC-257 melanoma): > 100 µM
- GI50 (UACC-62 melanoma): > 100 µM
- TGI (UACC-62 melanoma): > 100 µM
- GI50 (DU-145 prostate): > 100 µM
- TGI (DU-145 prostate): > 100 µM
- GI50 (IGROV1 ovarian): > 100 µM
- TGI (IGROV1 ovarian): > 100 µM
- GI50 (NCI/ADR-RES ovarian): > 100 µM
- TGI (NCI/ADR-RES ovarian): > 100 µM
- GI50 (SF-539 CNS): > 100 µM
- TGI (SF-539 CNS): > 100 µM
- GI50 (786-0 renal): > 100 µM
- TGI (786-0 renal): > 100 µM
- GI50 (TK-10 renal): > 100 µM
- TGI (TK-10 renal): > 100 µM
- GI50 (HS 578T breast): > 100 µM
- TGI (HS 578T breast): > 100 µM
- GI50 (MDA-MB-231 breast): > 100 µM
- TGI (MDA-MB-231 breast): > 100 µM
- GI50 (K-562 leukemia): > 100 µM
- TGI (K-562 leukemia): > 100 µM
- GI50 (UO-31 renal): > 100 µM
- TGI (UO-31 renal): > 100 µM
- GI50 (OVCAR-8 ovarian): > 100 µM
- TGI (OVCAR-8 ovarian): > 100 µM
- GI50 (RXF 393 renal): > 100 µM
- TGI (RXF 393 renal): > 100 µM
- GI50 (SK-OV-3 ovarian): > 100 µM
- TGI (SK-OV-3 ovarian): > 100 µM
- GI50 (HT29 colon): > 100 µM
- TGI (HT29 colon): > 100 µM
- GI50 (ACHN renal): > 100 µM
- TGI (ACHN renal): > 100 µM
- GI50 (RPMI-8226 leukemia): > 100 µM
- TGI (RPMI-8226 leukemia): > 100 µM
- GI50 (SK-MEL-28 melanoma): > 100 µM
- TGI (SK-MEL-28 melanoma): > 100 µM
- GI50 (SN12C renal): > 100 µM
- TGI (SN12C renal): > 100 µM
- GI50 (SR leukemia): > 100 µM
- TGI (SR leukemia): > 100 µM
- GI50 (OVCAR-3 ovarian): > 100 µM
- TGI (OVCAR-3 ovarian): > 100 µM
- GI50 (PC-3 prostate): > 100 µM
- TGI (PC-3 prostate): > 100 µM
- GI50 (NCI-H522 lung): > 100 µM
- TGI (NCI-H522 lung): > 100 µM
- GI50 (T-47D breast): > 100 µM
- TGI (T-47D breast): > 100 µM
- GI50 (NCI-H23 lung): > 100 µM
- TGI (NCI-H23 lung): > 100 µM
- GI50 (MOLT-4 leukemia): > 100 µM
- TGI (MOLT-4 leukemia): > 100 µM
- GI50 (HL-60(TB) leukemia): > 100 µM
- TGI (HL-60(TB) leukemia): > 100 µM
- GI50 (MALME-3M melanoma): > 100 µM
- TGI (MALME-3M melanoma): > 100 µM
- GI50 (NCI-H226 lung): > 100 µM
- TGI (NCI-H226 lung): > 100 µM
- GI50 (A549 NSCLC): > 100 µM
- TGI (A549 NSCLC): > 100 µM
- GI50 (SW-620 colon): > 100 µM
- TGI (SW-620 colon): > 100 µM
- GI50 (SF-295 CNS): > 100 µM
- TGI (SF-295 CNS): > 100 µM
- GI50 (SF-268 CNS): > 100 µM
- TGI (SF-268 CNS): > 100 µM
- GI50 (M14 melanoma): > 100 µM
- TGI (M14 melanoma): > 100 µM
- GI50 (MDA-MB-435): > 100 µM
- TGI (MDA-MB-435): > 100 µM
- GI50 (BT-549 breast): > 100 µM
- TGI (BT-549 breast): > 100 µM
- GI50 (OVCAR-4 ovarian): > 100 µM
- TGI (OVCAR-4 ovarian): > 100 µM
- GI50 (HOP-92 NSCLC): 28 µM
- TGI (HOP-92 NSCLC): > 100 µM
- GI50 (SK-MEL-2 melanoma): > 100 µM
- TGI (SK-MEL-2 melanoma): > 100 µM
- GI50 (HOP-62 NSCLC): > 100 µM
- TGI (HOP-62 NSCLC): > 100 µM
- GI50 (A498 renal): > 45.4 µM
- TGI (A498 renal): > 100 µM
- GI50 (SNB-75 CNS): > 100 µM
- TGI (SNB-75 CNS): > 100 µM
- GI50 (KM12 colon): > 100 µM
- TGI (KM12 colon): > 100 µM
- GI50 (U251 CNS): > 100 µM
- TGI (U251 CNS): > 100 µM
- GI50 (OVCAR-5 ovarian): > 100 µM
- TGI (OVCAR-5 ovarian): > 100 µM
- GI50 (COLO 205 colon): > 100 µM
- TGI (COLO 205 colon): > 100 µM
